Tests used:
[1] = Liquid
[2] = xn = mol fraction of the nth substance listed; settings: Liquid, Vibrating wire viscometry, x1 = 1

CCC(C)O (centres undefined) [butan-2-ol]
viscosity [mPa·s], [1]
Settings | 293.15 K | 298.15 K | 313.15 K | 333.15 K | 353.15 K
100 kPa, Concentric cylinders viscometry | 3.744 | – | 1.832 | 1.011 | 0.6218
100 kPa, Vibrating wire viscometry | 3.767 | 3.102 | 1.839 | 1.007 | 0.6198
1000 kPa, Vibrating wire viscometry | 3.813 | 3.123 | 1.862 | 1.023 | 0.6273
5000 kPa, Vibrating wire viscometry | 3.978 | 3.28 | 1.947 | 1.078 | 0.6577
10000 kPa, Vibrating wire viscometry | 4.235 | 3.462 | 2.041 | 1.133 | 0.6999
20000 kPa, Vibrating wire viscometry | 4.696 | 3.873 | 2.262 | 1.254 | 0.7717
30000 kPa, Vibrating wire viscometry | 5.159 | 4.253 | 2.503 | 1.372 | 0.8354
40000 kPa, Vibrating wire viscometry | 5.693 | 4.697 | 2.734 | 1.491 | 0.9088
50000 kPa, Vibrating wire viscometry | 6.274 | 5.142 | 2.99 | 1.624 | 0.9898
60000 kPa, Vibrating wire viscometry | 6.831 | 5.553 | 3.237 | 1.759 | 1.07
70000 kPa, Vibrating wire viscometry | 7.377 | 6.044 | 3.558 | 1.905 | 1.151
80000 kPa, Vibrating wire viscometry | 8.056 | 6.544 | 3.841 | 2.081 | 1.242
100000 kPa, Vibrating wire viscometry | 9.598 | 7.646 | 4.456 | 2.427 | 1.444
120000 kPa, Vibrating wire viscometry | 11.31 | 9.053 | 5.179 | 2.716 | 1.644
140000 kPa, Vibrating wire viscometry | 13.38 | 10.43 | 5.933 | 3.099 | 1.845

CCC(C)O (centres undefined) [butan-2-ol] + Cc1ccc(C)c(C)c1
viscosity [mPa·s], [2]
Settings | 293.15 K | 298.15 K | 313.15 K | 333.15 K | 353.15 K
100 kPa | 3.767 | 3.102 | 1.839 | 1.007 | 0.6198
1000 kPa | 3.813 | 3.123 | 1.862 | 1.023 | 0.6273
5000 kPa | 3.978 | 3.28 | 1.947 | 1.078 | 0.6577
10000 kPa | 4.235 | 3.462 | 2.041 | 1.133 | 0.6999
20000 kPa | 4.696 | 3.873 | 2.262 | 1.254 | 0.7717
30000 kPa | 5.159 | 4.253 | 2.503 | 1.372 | 0.8354
40000 kPa | 5.693 | 4.697 | 2.734 | 1.491 | 0.9088
50000 kPa | 6.274 | 5.142 | 2.99 | 1.624 | 0.9898
60000 kPa | 6.831 | 5.553 | 3.237 | 1.759 | 1.07
70000 kPa | 7.377 | 6.044 | 3.558 | 1.905 | 1.151
80000 kPa | 8.056 | 6.544 | 3.841 | 2.081 | 1.242
100000 kPa | 9.598 | 7.646 | 4.456 | 2.427 | 1.444
120000 kPa | 11.31 | 9.053 | 5.179 | 2.716 | 1.644
140000 kPa | 13.38 | 10.43 | 5.933 | 3.099 | 1.845
